In patent publication US20090304692A1, “TRIAZINE COMPOUNDS AS PI3 KINASE AND MTOR INHIBITORS” (Wyeth, priority 2008, published 2009):
Like-named read-outs stand apart in the source and are kept apart here.

Assays:
[1] = target: PI3K-γ (Homo sapiens, UniProt P48736); assay: PI3K-gamma fluorescence polarization assay
[2] = target: Human mTOR (FLAG-TOR) (Homo sapiens, UniProt P42345); assay: mTOR kinase assay (DELFIA format, purified enzyme); format: biochemical; details: read-out: IC50 mTOR
[3] = system: human prostate LNCap tumor cell line; assay: In vitro cell culture growth assay (MTS), LNCap; details: Homo sapiens, LNCaP, 72 h, read-out: IC50 LNCap
[4] = target: PI3K-α (Homo sapiens, UniProt P42336); assay: PI3K-alpha fluorescence polarization assay; details: read-out: IC50 PI3Kα
Sequence of PI3K-α (P42336 whole entry, species assumed): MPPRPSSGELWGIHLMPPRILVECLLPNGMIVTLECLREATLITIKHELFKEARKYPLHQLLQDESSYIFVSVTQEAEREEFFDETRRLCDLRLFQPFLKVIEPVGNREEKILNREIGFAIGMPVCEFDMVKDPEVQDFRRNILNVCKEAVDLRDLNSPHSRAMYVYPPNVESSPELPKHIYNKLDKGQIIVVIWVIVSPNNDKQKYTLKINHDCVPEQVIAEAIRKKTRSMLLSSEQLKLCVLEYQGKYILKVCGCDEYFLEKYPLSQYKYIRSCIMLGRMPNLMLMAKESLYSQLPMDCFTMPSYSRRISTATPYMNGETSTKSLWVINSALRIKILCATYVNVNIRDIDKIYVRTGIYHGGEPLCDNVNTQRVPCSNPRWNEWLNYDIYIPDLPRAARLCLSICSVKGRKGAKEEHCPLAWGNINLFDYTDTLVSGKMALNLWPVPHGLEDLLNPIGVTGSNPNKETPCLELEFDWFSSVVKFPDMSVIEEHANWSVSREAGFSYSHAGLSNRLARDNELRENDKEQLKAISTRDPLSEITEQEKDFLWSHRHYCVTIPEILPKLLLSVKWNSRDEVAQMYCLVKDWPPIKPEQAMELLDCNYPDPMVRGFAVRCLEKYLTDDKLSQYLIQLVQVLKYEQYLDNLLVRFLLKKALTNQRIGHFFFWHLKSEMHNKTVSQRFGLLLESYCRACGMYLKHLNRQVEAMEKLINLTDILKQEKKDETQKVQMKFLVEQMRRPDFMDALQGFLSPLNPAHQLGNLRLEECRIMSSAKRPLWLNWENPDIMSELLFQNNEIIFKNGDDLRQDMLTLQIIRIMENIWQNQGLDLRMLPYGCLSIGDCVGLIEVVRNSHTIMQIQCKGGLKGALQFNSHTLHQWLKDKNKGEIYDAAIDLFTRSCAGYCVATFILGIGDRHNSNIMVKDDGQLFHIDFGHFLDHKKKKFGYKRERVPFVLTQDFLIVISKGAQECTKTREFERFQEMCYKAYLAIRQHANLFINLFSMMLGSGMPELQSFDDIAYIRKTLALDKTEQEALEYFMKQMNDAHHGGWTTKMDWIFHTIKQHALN
Sequence of PI3K-α (P27986 whole entry partner, species assumed): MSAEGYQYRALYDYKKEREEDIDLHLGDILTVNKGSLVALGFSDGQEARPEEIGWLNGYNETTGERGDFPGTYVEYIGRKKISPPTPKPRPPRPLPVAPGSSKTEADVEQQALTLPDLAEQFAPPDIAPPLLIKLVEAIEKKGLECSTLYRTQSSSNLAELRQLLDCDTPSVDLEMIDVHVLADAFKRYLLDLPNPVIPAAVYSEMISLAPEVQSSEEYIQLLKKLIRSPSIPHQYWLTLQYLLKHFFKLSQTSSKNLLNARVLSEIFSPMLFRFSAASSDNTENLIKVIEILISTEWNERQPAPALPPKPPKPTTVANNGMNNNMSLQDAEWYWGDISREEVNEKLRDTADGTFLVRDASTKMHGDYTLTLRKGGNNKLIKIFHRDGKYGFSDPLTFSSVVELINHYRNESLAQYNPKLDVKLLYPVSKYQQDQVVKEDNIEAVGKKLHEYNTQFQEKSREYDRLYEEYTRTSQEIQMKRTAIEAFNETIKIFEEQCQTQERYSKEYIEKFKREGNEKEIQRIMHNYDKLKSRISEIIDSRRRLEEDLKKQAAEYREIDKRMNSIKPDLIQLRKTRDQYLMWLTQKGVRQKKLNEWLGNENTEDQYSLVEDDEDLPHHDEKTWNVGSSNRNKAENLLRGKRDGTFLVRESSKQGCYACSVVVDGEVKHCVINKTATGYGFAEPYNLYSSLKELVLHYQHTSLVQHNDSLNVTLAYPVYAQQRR

Sequence of Human mTOR (FLAG-TOR) (P42345 1360-2549 limits assumed): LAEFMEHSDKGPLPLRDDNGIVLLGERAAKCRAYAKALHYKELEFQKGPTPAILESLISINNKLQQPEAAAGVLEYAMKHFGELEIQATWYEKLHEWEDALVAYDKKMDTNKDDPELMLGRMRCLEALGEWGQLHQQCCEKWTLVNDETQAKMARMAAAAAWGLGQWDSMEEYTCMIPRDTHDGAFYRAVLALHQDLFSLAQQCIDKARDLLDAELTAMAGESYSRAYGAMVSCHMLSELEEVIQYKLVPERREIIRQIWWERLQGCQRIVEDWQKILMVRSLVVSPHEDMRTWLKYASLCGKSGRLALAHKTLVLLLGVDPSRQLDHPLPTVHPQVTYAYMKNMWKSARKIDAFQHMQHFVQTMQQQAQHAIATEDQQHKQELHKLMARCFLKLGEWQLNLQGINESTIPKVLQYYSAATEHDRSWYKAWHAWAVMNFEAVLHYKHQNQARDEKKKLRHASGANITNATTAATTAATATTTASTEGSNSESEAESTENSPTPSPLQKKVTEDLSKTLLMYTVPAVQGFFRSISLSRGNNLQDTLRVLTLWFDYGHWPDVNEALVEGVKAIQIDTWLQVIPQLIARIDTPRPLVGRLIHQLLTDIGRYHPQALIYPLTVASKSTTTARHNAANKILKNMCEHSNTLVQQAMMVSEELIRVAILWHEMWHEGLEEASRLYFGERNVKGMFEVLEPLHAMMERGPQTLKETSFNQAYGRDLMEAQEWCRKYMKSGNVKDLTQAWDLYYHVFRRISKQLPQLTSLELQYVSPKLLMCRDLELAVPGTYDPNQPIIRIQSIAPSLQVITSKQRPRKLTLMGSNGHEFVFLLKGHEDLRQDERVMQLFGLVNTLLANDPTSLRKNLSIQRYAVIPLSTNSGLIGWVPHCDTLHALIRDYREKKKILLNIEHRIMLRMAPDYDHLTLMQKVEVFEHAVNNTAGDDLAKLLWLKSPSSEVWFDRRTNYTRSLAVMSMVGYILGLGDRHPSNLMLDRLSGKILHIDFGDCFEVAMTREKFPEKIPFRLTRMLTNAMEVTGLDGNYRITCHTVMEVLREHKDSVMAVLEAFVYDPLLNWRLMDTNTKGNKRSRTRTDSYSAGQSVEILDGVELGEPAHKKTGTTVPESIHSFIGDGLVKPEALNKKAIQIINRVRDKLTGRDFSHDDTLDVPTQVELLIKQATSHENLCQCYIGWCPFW
Sequence of PI3K-γ (P48736 whole entry, species assumed): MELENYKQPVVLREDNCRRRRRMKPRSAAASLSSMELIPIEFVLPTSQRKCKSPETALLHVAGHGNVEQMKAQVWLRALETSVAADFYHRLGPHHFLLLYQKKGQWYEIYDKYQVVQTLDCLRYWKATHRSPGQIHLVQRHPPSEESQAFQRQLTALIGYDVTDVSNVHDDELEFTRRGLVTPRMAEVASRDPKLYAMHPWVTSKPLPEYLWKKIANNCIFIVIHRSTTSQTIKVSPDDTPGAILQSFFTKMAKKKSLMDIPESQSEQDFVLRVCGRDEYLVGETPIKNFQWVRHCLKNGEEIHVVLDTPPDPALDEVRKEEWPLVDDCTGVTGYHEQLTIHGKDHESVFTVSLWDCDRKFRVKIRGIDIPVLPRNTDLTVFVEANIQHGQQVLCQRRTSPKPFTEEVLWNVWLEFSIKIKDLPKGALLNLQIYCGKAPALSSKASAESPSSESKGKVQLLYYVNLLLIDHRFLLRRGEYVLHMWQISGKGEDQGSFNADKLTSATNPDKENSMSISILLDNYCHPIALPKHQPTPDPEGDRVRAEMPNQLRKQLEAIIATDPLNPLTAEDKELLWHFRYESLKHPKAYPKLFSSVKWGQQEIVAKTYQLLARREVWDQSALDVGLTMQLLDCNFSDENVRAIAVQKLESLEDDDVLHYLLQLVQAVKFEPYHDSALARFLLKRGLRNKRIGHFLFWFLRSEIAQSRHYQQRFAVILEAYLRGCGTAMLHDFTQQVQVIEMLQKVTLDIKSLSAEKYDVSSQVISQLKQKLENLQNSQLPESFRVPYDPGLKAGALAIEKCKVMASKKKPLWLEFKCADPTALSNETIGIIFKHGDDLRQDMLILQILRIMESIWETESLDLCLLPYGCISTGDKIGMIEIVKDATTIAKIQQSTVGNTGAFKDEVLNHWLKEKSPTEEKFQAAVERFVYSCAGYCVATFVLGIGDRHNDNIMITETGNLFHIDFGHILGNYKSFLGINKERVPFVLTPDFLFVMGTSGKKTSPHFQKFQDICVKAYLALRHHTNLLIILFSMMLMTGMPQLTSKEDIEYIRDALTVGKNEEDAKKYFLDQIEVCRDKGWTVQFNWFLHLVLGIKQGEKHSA

In the case of `O=C(Nc1ccc(CN2CCCC2)cc1)Nc1ccc(-c2nc(N3C4CCC3COC4)nc(N3C4CCC3COC4)n2)cc1` [Example 369, 1-(4-(4,6-di(3-oxa-8-azabicyclo[3.2.1]octan-8-yl)-1,3,5-triazin-2-yl)phenyl)-3-(4-(pyrrolidin-1-ylmethyl)phenyl)urea], the IC50 ([1]; read-out: IC50 PI3Kγ) is reported as 2560 nM, the IC50 [2] is reported as 1.3 nM and the IC50 [3] is reported as 3 nM. For the same molecule, the IC50 [4] was 362 nM.
With `CN(C)CC(=O)Nc1ccc(NC(=O)Nc2ccc(-c3nc(N4C5CCC4COC5)nc(N4C5CCC4COC5)n3)cc2)cc1` [Example 373, N-(4-(3-(4-(4,6-di(3-oxa-8-azabicyclo[3.2.1]octan-8-yl)-1,3,5-triazin-2-yl)phenyl)ureido)phenyl)-2-(dimethylamino)acetamide] the IC50 ([1]; read-out: IC50 PI3Kγ) was 2960 nM, the IC50 [2] was 0.16 nM and the IC50 [3] was 1 nM. The IC50 [4] was 70 nM.
`CN1CCN(CC(=O)Nc2ccc(NC(=O)Nc3ccc(-c4nc(N5C6CCC5COC6)nc(N5C6CCC5COC6)n4)cc3)cc2)CC1` [Example 374, N-(4-(3-(4-(4,6-di(3-oxa-8-azabicyclo[3.2.1]octan-8-yl)-1,3,5-triazin-2-yl)phenyl)ureido)phenyl)-2-(4-methylpiperazin-1-yl)acetamide] was tested, and the IC50 ([1]; read-out: IC50 PI3Kγ) was 3920 nM, the IC50 [2] was 0.14 nM and the IC50 [3] was < 0.8 nM. The IC50 [4] was 64 nM.
For `O=C(CN1CCCC1)Nc1ccc(NC(=O)Nc2ccc(-c3nc(N4C5CCC4COC5)nc(N4C5CCC4COC5)n3)cc2)cc1` [Example 375, N-(4-(3-(4-(4,6-di(3-oxa-8-azabicyclo[3.2.1]octan-8-yl)-1,3,5-triazin-2-yl)phenyl)ureido)phenyl)-2-(pyrrolidin-1-yl)acetamide], the IC50 ([1]; read-out: IC50 PI3Kγ) was 2590 nM, the IC50 [2] was 0.15 nM and the IC50 [3] was < 0.8 nM. For the same molecule, the IC50 [4] was 44 nM.
With `CC(C)Nc1nc(-c2ccc(NC(=O)Nc3cccnc3)cc2)nc(N2C3CCC2COC3)n1` [Example 376, 1-(4-(4-(3-oxa-8-azabicyclo[3.2.1]octan-8-yl)-6-(isopropylamino)-1,3,5-triazin-2-yl)phenyl)-3-(pyridin-3-yl)urea] the IC50 [1] was > 10000 nM, the IC50 [2] was 2.3 nM and the IC50 [3] was 50 nM. The IC50 [4] was 2600 nM.
For `CC(C)Nc1nc(-c2ccc(NC(=O)Nc3ccncc3)cc2)nc(N2C3CCC2COC3)n1` [Example 377, 1-(4-(4-(3-oxa-8-azabicyclo[3.2.1]octan-8-yl)-6-(isopropylamino)-1,3,5-triazin-2-yl)phenyl)-3-(pyridin-4-yl)urea], the IC50 ([1]; read-out: IC50 PI3Kγ) was 4720 nM, the IC50 [2] was 3.9 nM and the IC50 [3] was 90 nM. It also gave an IC50 [4] of 2610 nM.
`CC(C)Nc1nc(-c2ccc(NC(=O)Nc3ccc(CN4CCN(C)CC4)cc3)cc2)nc(N2C3CCC2COC3)n1` [Example 379, 1-(4-(4-(3-oxa-8-azabicyclo[3.2.1]octan-8-yl)-6-(isopropylamino)-1,3,5-triazin-2-yl)phenyl)-3-(4-((4-methylpiperazin-1-yl)methyl)phenyl)urea] showed an IC50 ([1]; read-out: IC50 PI3Kγ) of 5260 nM, an IC50 [2] of 7.3 nM and an IC50 [3] of 140 nM. The IC50 [4] was 4750 nM.
Molecule `CC(C)Nc1nc(-c2ccc(NC(=O)Nc3ccc(CN4CCNCC4)cc3)cc2)nc(N2C3CCC2COC3)n1` [Example 380, 1-(4-(4-(3-oxa-8-azabicyclo[3.2.1]octan-8-yl)-6-(isopropylamino)-1,3,5-triazin-2-yl)phenyl)-3-(4-(piperazin-1-ylmethyl)phenyl)urea] has an IC50 ([1]; read-out: IC50 PI3Kγ) of 3560 nM, an IC50 [2] of 5.1 nM and an IC50 [3] of 300 nM. For the same molecule, the IC50 [4] was 3340 nM.
Work on `CC(C)Nc1nc(-c2ccc(NC(=O)Nc3ccc(CN(C)C)cc3)cc2)nc(N2C3CCC2COC3)n1` [Example 381, 1-(4-(4-(3-oxa-8-azabicyclo[3.2.1]octan-8-yl)-6-(isopropylamino)-1,3,5-triazin-2-yl)phenyl)-3-(4-((dimethylamino)methyl)phenyl)urea] yielded an IC50 ([1]; read-out: IC50 PI3Kγ) of 5400 nM, an IC50 [2] of 5.9 nM and an IC50 [3] of 140 nM. For the same molecule, the IC50 [4] was 2960 nM.
With `CC(C)Nc1nc(-c2ccc(NC(=O)Nc3ccc(CN)cc3)cc2)nc(N2C3CCC2COC3)n1` [Example 382, 1-(4-(4-(3-oxa-8-azabicyclo[3.2.1]octan-8-yl)-6-(isopropylamino)-1,3,5-triazin-2-yl)phenyl)-3-(4-(aminomethyl)phenyl)urea] the IC50 ([1]; read-out: IC50 PI3Kγ) was 4310 nM, the IC50 [2] was 4.5 nM and the IC50 [3] was 48 nM. It also gave an IC50 [4] of 522 nM.
`CC(C)Nc1nc(-c2ccc(NC(=O)Nc3ccc(CN4CCCC4)cc3)cc2)nc(N2C3CCC2COC3)n1` [Example 383, 1-(4-(4-(3-oxa-8-azabicyclo[3.2.1]octan-8-yl)-6-(isopropylamino)-1,3,5-triazin-2-yl)phenyl)-3-(4-(pyrrolidin-1-ylmethyl)phenyl)urea] gave an IC50 ([1]; read-out: IC50 PI3Kγ) of 3610 nM, an IC50 [2] of 6.1 nM and an IC50 [3] of 150 nM. For the same molecule, the IC50 [4] was 2980 nM.
`CC(C)Nc1nc(-c2ccc(NC(=O)Nc3ccc(OCCN4CCCC4)cc3)cc2)nc(N2C3CCC2COC3)n1` [Example 384, 1-(4-(4-(3-oxa-8-azabicyclo[3.2.1]octan-8-yl)-6-(isopropylamino)-1,3,5-triazin-2-yl)phenyl)-3-(4-(2-(pyrrolidin-1-yl)ethoxy)phenyl)urea] was tested, and the IC50 ([1]; read-out: IC50 PI3Kγ) was 5380 nM, the IC50 [2] was 6.4 nM and the IC50 [3] was 50 nM. For the same molecule, the IC50 [4] was 4220 nM.
`CC(C)Nc1nc(-c2ccc(NC(=O)Nc3ccc(OCCN(C)C)cc3)cc2)nc(N2C3CCC2COC3)n1` [Example 385, 1-(4-(4-(3-oxa-8-azabicyclo[3.2.1]octan-8-yl)-6-(isopropylamino)-1,3,5-triazin-2-yl)phenyl)-3-(4-(2-(dimethylamino)ethoxy)phenyl)urea] gave an IC50 ([1]; read-out: IC50 PI3Kγ) of 4690 nM, an IC50 [2] of 5.7 nM and an IC50 [3] of 70 nM. For the same molecule, the IC50 [4] was 3400 nM.
`CC(C)Nc1nc(-c2ccc(NC(=O)Nc3ccc(N4CCNCC4)cc3)cc2)nc(N2C3CCC2COC3)n1` [Example 387, 1-(4-(4-(3-oxa-8-azabicyclo[3.2.1]octan-8-yl)-6-(isopropylamino)-1,3,5-triazin-2-yl)phenyl)-3-(4-(piperazin-1-yl)phenyl)urea] was tested, and the IC50 ([1]; read-out: IC50 PI3Kγ) was 2860 nM, the IC50 [2] was 3.2 nM and the IC50 [3] was 70 nM. For the same molecule, the IC50 [4] was 3420 nM.
With `CC(C)Nc1nc(-c2ccc(NC(=O)Nc3ccc(N4CCC(N(C)C)CC4)cc3)cc2)nc(N2C3CCC2COC3)n1` [Example 388, 1-(4-(4-(3-oxa-8-azabicyclo[3.2.1]octan-8-yl)-6-(isopropylamino)-1,3,5-triazin-2-yl)phenyl)-3-(4-(4-(dimethylamino)piperidin-1-yl)phenyl)urea] the IC50 ([1]; read-out: IC50 PI3Kγ) was 4280 nM, the IC50 [2] was 4.8 nM and the IC50 [3] was 110 nM. It also gave an IC50 [4] of 3450 nM.
`CC(C)N(C)c1nc(-c2ccc(NC(=O)Nc3ccc(CN(C)C)cc3)cc2)nc(N2C3CCC2COC3)n1` [Example 390, 1-(4-(4-(3-oxa-8-azabicyclo[3.2.1]octan-8-yl)-6-(isopropyl(methyl)amino)-1,3,5-triazin-2-yl)phenyl)-3-(4-((dimethylamino)methyl)phenyl)urea] showed an IC50 ([1]; read-out: IC50 PI3Kγ) of 2350 nM, an IC50 [2] of 12 nM and an IC50 [3] of 650 nM. For the same molecule, the IC50 [4] was 2470 nM.
In the case of `CC(C)N(C)c1nc(-c2ccc(NC(=O)Nc3ccc(OCCN(C)C)cc3)cc2)nc(N2C3CCC2COC3)n1` [Example 391, 1-(4-(4-(3-oxa-8-azabicyclo[3.2.1]octan-8-yl)-6-(isopropyl(methyl)amino)-1,3,5-triazin-2-yl)phenyl)-3-(4-(2-(dimethylamino)ethoxy)phenyl)urea], the IC50 ([1]; read-out: IC50 PI3Kγ) is reported as 4000 nM, the IC50 [2] is reported as 9.6 nM and the IC50 [3] is reported as 300 nM. For the same molecule, the IC50 [4] was 2400 nM.
Molecule `O=C(Nc1ccc(-c2nc(N3CCSCC3)nc(N3C4CCC3COC4)n2)cc1)Nc1cccnc1` [Example 392, 1-(4-(4-(3-oxa-8-azabicyclo[3.2.1]octan-8-yl)-6-thiomorpholino-1,3,5-triazin-2-yl)phenyl)-3-(pyridin-3-yl)urea] has an IC50 ([1]; read-out: IC50 PI3Kγ) of 2780 nM, an IC50 [2] of 5.5 nM and an IC50 [3] of 480 nM. It also gave an IC50 [4] of 1180 nM.
For `O=C(Nc1ccncc1)Nc1ccc(-c2nc(N3CCSCC3)nc(N3C4CCC3COC4)n2)cc1` [Example 393, 1-(4-(4-(3-oxa-8-azabicyclo[3.2.1]octan-8-yl)-6-thiomorpholino-1,3,5-triazin-2-yl)phenyl)-3-(pyridin-4-yl)urea], the IC50 ([1]; read-out: IC50 PI3Kγ) was 1540 nM, the IC50 [2] was 3.6 nM and the IC50 [3] was 580 nM. The IC50 [4] was 444 nM.
`CN(C)Cc1ccc(NC(=O)Nc2ccc(-c3nc(N4CCSCC4)nc(N4C5CCC4COC5)n3)cc2)cc1` [Example 395, 1-(4-(4-(3-oxa-8-azabicyclo[3.2.1]octan-8-yl)-6-thiomorpholino-1,3,5-triazin-2-yl)phenyl)-3-(4-((dimethylamino)methyl)phenyl)urea] gave an IC50 ([1]; read-out: IC50 PI3Kγ) of 2220 nM, an IC50 [2] of 14 nM and an IC50 [3] of 590 nM. It also gave an IC50 [4] of 584 nM.
For `C[C@@H]1COCCN1c1nc(-c2ccc(NC(=O)Nc3cccnc3)cc2)nc(N2CCOC[C@H]2C)n1` [Example 398, 1-(4-(4,6-bis((R)-3-methylmorpholino)-1,3,5-triazin-2-yl)phenyl)-3-(pyridin-3-yl)urea], the IC50 ([1]; read-out: IC50 PI3Kγ) was 3910 nM, the IC50 [2] was 0.21 nM and the IC50 [3] was 12 nM. The IC50 [4] was 644 nM.
Work on `C[C@@H]1COCCN1c1nc(-c2ccc(NC(=O)Nc3ccc(N4CCN(C)CC4)cc3)cc2)nc(N2CCOC[C@H]2C)n1` [Example 399, 1-(4-(4,6-bis((R)-3-methylmorpholino)-1,3,5-triazin-2-yl)phenyl)-3-(4-(4-methylpiperazin-1-yl)phenyl)urea] yielded an IC50 ([1]; read-out: IC50 PI3Kγ) of 1690 nM, an IC50 [2] of 1.1 nM and an IC50 [3] of 3 nM. For the same molecule, the IC50 [4] was 330 nM.
Work on `C[C@@H]1COCCN1c1nc(-c2ccc(NC(=O)Nc3ccc(CN(C)C)cc3)cc2)nc(N2CCOC[C@H]2C)n1` [Example 401, 1-(4-(4,6-bis((R)-3-methylmorpholino)-1,3,5-triazin-2-yl)phenyl)-3-(4-((dimethylamino)methyl)phenyl)urea] yielded an IC50 ([1]; read-out: IC50 PI3Kγ) of 3250 nM, an IC50 [2] of 2 nM and an IC50 [3] of 21 nM. For the same molecule, the IC50 [4] was 413 nM.
`C[C@@H]1COCCN1c1nc(-c2ccc(NC(=O)Nc3ccc(OCCN(C)C)cc3)cc2)nc(N2CCOC[C@H]2C)n1` [Example 402, 1-(4-(4,6-bis((R)-3-methylmorpholino)-1,3,5-triazin-2-yl)phenyl)-3-(4-(2-(dimethylamino)ethoxy)phenyl)urea] gave an IC50 ([1]; read-out: IC50 PI3Kγ) of 3640 nM, an IC50 [2] of 1.8 nM and an IC50 [3] of 7 nM. It also gave an IC50 [4] of 543 nM.
